According to ChEMBL document CHEMBL4340575, “Design, synthesis and biological evaluation of novel aryl-acrylic derivatives as novel indoleamine-2,3-dioxygenase 1 (IDO1) inhibitors” (Bioorg Med Chem, 2019):

Key:
[1] = system: HeLa; assay: Toxicity in human HeLa cells assessed as reduction in cell viability; assay type: cell-based
[2] = target: T1, Indoleamine 2,3-dioxygenase 1 (Homo sapiens, UniProt P14902); assay: Inhibition of IDO1 in interferon-gamma-induced human HeLa cells using L-tryptophan substrate incubated for 24 hrs; assay type: cell-based
[3] = target: T1, Indoleamine 2,3-dioxygenase 1; assay: Inhibition of purified recombinant human IDO1 using L-tryptophan substrate incubated fro 30 mins

T1 sequence (P14902 whole entry): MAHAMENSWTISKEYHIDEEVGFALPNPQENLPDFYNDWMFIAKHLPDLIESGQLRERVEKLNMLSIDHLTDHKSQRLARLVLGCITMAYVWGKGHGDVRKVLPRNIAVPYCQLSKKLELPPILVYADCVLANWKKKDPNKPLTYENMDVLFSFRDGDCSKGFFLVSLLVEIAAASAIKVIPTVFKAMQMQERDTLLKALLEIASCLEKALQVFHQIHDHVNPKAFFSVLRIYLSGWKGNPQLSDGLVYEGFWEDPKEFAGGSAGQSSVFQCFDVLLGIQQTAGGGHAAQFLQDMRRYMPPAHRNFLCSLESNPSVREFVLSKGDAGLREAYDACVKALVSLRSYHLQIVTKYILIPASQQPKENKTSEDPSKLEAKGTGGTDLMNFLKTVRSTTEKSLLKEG

IC50 [2] [µM] | IC50 [3] [µM] | Compound | Activity [1]
2.83 | 12.3 | CCCCN(CCCC)c1ccc(/C(C)=C/C(=O)O)cc1NC(=O)N/N=C/c1ccccc1C(F)(F)F | Non-Toxic
3.87 | 14.4 | CCCCN(CCCC)c1ccc(/C(C)=C/C(=O)O)cc1NC(=O)N/N=C/c1ccc(Cl)cc1 | Non-Toxic
1.95 | 10.1 | C/C(=C\C(=O)O)c1ccc(N(CC(C)C)CC(C)C)c(NC(=O)N/N=C/c2ccccc2F)c1 | Non-Toxic
20 | 58.3 | C/C(=C\C(=O)O)c1ccc(N2CCOCC2)c(-n2cc(CNc3ccc(F)cc3)nn2)c1 | –
1.02 | 10.2 | C/C(=C\C(=O)O)c1ccc(N(CC(C)C)CC(C)C)c(NC(=O)N/N=C/c2ccc(Cl)cc2)c1 | Non-Toxic
